# How the values were obtained:
# Test in all cases: relative viability (nuclei count vs DMSO), 5 days (fraction); higher = more cells survive
# [1] = compound: CC(C)=CC[C@@H](O)C1=CC(=O)c2c(O)ccc(O)c2C1=O [Shikonin] + COc1cccc2cc(-c3nc([C@H]4CC[C@H](C(=O)O)CC4)n4ncnc(N)c34)[nH]c12 [OSI-027] (partner 0.5 µM)
# Outline: (§1)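 Relative viability divides the nuclei count in treated wells by that in vehicle wells. Lung cancer cell lines were seeded in 1536-well plates, dosed by pin tool the next day, and fixed and stained after 5 days in one step with final 0.05% Triton X-100, 1% formaldehyde and 1 ug/ml Hoechst. Dosing was a single drug or a fixed anchor-drug dose plus five library-drug doses (not always all listed) in √10 steps, and values are medians of duplicate plates imaged at 4×.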
# [2] = compound: CC(C)=CC[C@@H](O)C1=CC(=O)c2c(O)ccc(O)c2C1=O [Shikonin] + C[C@@H](Oc1cc(-c2cnn(C3CCNCC3)c2)cnc1N)c1c(Cl)ccc(F)c1Cl [Crizotinib] (partner 1 µM)
# Outline: as §1
# [3] = compound: CC(C)=CC[C@@H](O)C1=CC(=O)c2c(O)ccc(O)c2C1=O [Shikonin] + Nc1ncn([C@H]2C[C@H](O)[C@@H](CO)O2)c(=O)n1 [Decitabine] (partner 2 µM)
# Outline: as §1
# [4] = compound: CC(C)N(CCCNC(=O)Nc1ccc(C(C)(C)C)cc1)C[C@H]1O[C@@H](n2ccc3c(N)ncnc32)[C@H](O)[C@@H]1O + COc1cccc2cc(-c3nc([C@H]4CC[C@H](C(=O)O)CC4)n4ncnc(N)c34)[nH]c12 [OSI-027] (partner 0.5 µM)
# Outline: as §1
Cell Line,relative viability ([1]; first compound 0.01 µM),relative viability ([1]; first compound 0.1 µM),relative viability ([1]; first compound 0.3162 µM),relative viability ([1]; first compound 1 µM),relative viability ([2]; first compound 0.01 µM),relative viability ([2]; first compound 0.1 µM),relative viability ([2]; first compound 0.3162 µM),relative viability ([2]; first compound 1 µM),relative viability ([3]; first compound 0.01 µM),relative viability ([3]; first compound 0.1 µM),relative viability ([3]; first compound 0.3162 µM),relative viability ([3]; first compound 1 µM),relative viability ([4]; first compound 0.08 µM),relative viability ([4]; first compound 0.253 µM),relative viability ([4]; first compound 0.8 µM),relative viability ([4]; first compound 2.53 µM),relative viability ([4]; first compound 8 µM)
H3255,0.591,0.596,0.622,0.475,0.945,1,0.958,0.915,0.606,0.658,0.663,0.503,0.564,0.614,0.685,0.543,0.538
SK-MES-1,0.694,0.493,0.742,0.519,1.11,1.05,1.08,1.11,0.323,0.417,0.371,0.426,0.615,0.685,0.586,0.619,0.586
NCI-H1437,0.936,0.833,0.849,0.952,1.02,1.17,0.883,0.993,0.607,0.594,0.524,0.536,0.804,0.831,0.81,0.891,0.867
LU99A,0.271,0.344,0.265,0.305,0.545,0.688,0.599,0.465,0.744,1.05,0.978,0.852,0.317,0.327,0.329,0.377,0.254
HCC-827,0.821,0.86,0.9,0.761,0.939,0.974,0.933,0.935,0.326,0.29,0.33,0.329,0.699,0.838,,0.722,0.665
LK-2,0.168,0.241,0.203,0.227,0.248,0.212,0.219,0.221,0.297,0.272,0.289,0.352,0.235,0.277,0.215,0.236,0.213
HCC-366,1.07,1.27,1.14,0.859,0.745,0.373,0.517,0.561,0.34,0.381,0.37,0.367,0.916,1.27,0.716,0.816,0.641
BEN,0.281,0.311,0.298,0.324,0.952,0.974,0.975,0.998,0.658,0.787,0.707,0.767,0.301,0.277,0.298,0.294,0.275
NCI-H2347,0.444,0.425,0.391,0.398,0.69,0.0168,0.795,0.715,0.646,0.623,0.659,0.597,0.459,0.427,0.413,0.574,0.509
201T,0.795,0.994,0.715,0.976,1.01,1.08,1.04,1.08,0.847,0.919,0.879,0.867,0.417,0.864,0.624,0.77,0.903
NCI-H2170,0.729,0.695,0.782,0.777,1.5,1.07,1.29,1.25,0.481,0.449,0.496,0.503,0.675,0.7,0.669,0.709,0.748
NCI-H596,0.584,0.968,0.754,0.679,1.1,0.884,0.96,0.985,1.08,1.03,0.981,1.25,0.672,,0.507,0.829,0.748
NCI-H838,0.387,0.345,0.405,0.459,0.898,0.967,0.898,0.99,0.476,0.413,0.442,0.468,0.359,0.408,0.367,0.388,0.476
HCC-15,0.719,0.705,0.692,0.744,0.89,0.916,0.913,0.928,0.575,0.848,0.638,0.792,0.641,0.815,0.6,0.812,0.655
ABC-1,0.61,0.533,0.391,0.265,1.72,1.15,1.13,0.531,1.33,1.28,1.21,1.02,0.497,0.588,,0.565,0.529
LCLC-103H,0.541,0.54,0.514,0.534,0.953,1,1.13,1.06,0.711,0.727,0.74,0.75,0.447,0.58,0.495,0.451,0.467
NCI-H460,0.834,0.755,1.11,0.879,1.37,1.38,1.26,0.884,0.446,0.685,0.504,0.516,0.62,0.551,0.693,0.564,0.601
EPLC-272H,0.271,0.274,0.279,0.259,1.03,0.901,0.953,0.865,0.344,0.387,0.371,0.358,0.275,0.423,0.274,0.283,0.259

# From the supplement of paper PMC10307832
